Results reported in PubChem BioAssay AID2060501 (Molecular Pharmacology Branch, DTP, NCI, 2025).

Tested on: 282377-053-R-J1-PDC complex spheroids, viability
Test: Anticancer human tumor 282377-053-R-J1-PDC patient-derived colon adenocarcinoma cell line growth inhibition [GQUAD]
Conditions: for IC50: curve of first compound; for viability, T/C: stronger effect = lower value
Excerpt: DNA G-quadruplex Stabilizer Agents in Combinations in Complex Spheroids
A high-throughput screen of multi-cell type tumor spheroids was designed to identify active combinations of DNA G-quadruplex stabilizer agents and targeted small molecules. Complex spheroids include a stromal component modeled by human endothelial cells (HUVEC) and fibroblasts modeled by human mesenchymal stem cells (MSCs). The concentration ranges selected for each drug and investigational agent were based upon clinically achievable concentrations if the clinical Cmax of the agent was known.
Compounds. The drugs and investigational agents: pidnarulex (CX-5461; NSC782164), APTO-253 (NSC789042), BRACO-19 (NSC847499), peposertib (NSC802822), ceralasertib (NSC780249), elimusertib (NSC800525), camonsertib (NSC841442), AZD-1390 (NSC803789), olaparib (NSC753686), talazoparib (NSC767125), ART-558 (NSC835418), sotorasib (NSC818433), MRTX-1133 (NSC836407), SN-38 (NSC673596), topotecan (NSC609699), etoposide (NSC141540), doxorubicin (NSC123127), gemcitabine (NSC613327), 5-fluorouracil (NSC19893), paclitaxel (NSC125973), vemurafenib (NSC761431), panobinostat (NSC761190), R-306465 (JNJ-16241199; NSC773264), adavosertib (NSC754352), TP-3654 (NSC805149), carboplatin (NSC241240), KSQ-4279 (NSC840948), and staurosporine (NSC755774) were obtained from the National Cancer Institute (NCI) Developmental Therapeutics Program Chemical Repository (34). The FDA-approved anticancer drug set is available from the NCI Developmental Therapeutics Program. […] The stock solutions were prepared in dimethyl sulfoxide (DMSO, Sigma-Aldrich, St. Louis, MO, cat. D2650) at 800-fold the tested concentration and stored at -70 degrees C prior to their use. All drugs and investigational agents were tested over a range starting from a high concentration at or near the clinical Cmax and decreasing in half-log increments. If the clinical Cmax for an agent had not been determined, the highest concentration tested was 10 microM.
2.3 Cell Culture. All cells were maintained in an incubator at 37 degrees C and 5% CO2 with 95% humidity. The PDC lines were cultured according to standard operating procedures established by the NCI PDMR. All PDCs were thawed and cultured in Matrigel-coated flasks prepared with a working solution of 1X Ham's F-12 nutrient mix, without supplementation (Invitrogen, cat. 11765054), 100 U/mL penicillin-streptomycin (Invitrogen, cat. 15140122), and 2.5% Matrigel (Corning Inc., cat. 354248) for the first three passages. The 857933-349-R-J2-PDC line was cultured in 6C/Colon 1B media, which includes advanced DMEM/F-12 (Thermo Fisher Scientific, cat. 12634028), 10 mM HEPES (Thermo Fisher Scientific, cat. 15630080), 1X GlutaMAX supplement (Thermo Fisher Scientific, cat. 35050061), 0.1 mg/mL primocin (InvivoGen, cat. ant-pm-2), 10% defined fetal bovine serum, heat inactivated (HyClone Laboratories Inc., cat. SH30070.03HI), 50% L-WRN conditioned media (ATCC, cat. CRL-3276), 1.25 mM N-Acetyl-L-cysteine (Sigma-Aldrich, cat. A9165), 10 mM nicotinamide (Sigma-Aldrich, cat. N0636), 1X B-27 supplement (Thermo Fisher Scientific, cat. 17504044), 1X N-2 supplement (Thermo Fisher Scientific, cat. 17502048), 10 microM Y-27632 dihydrochloride (Tocris Bioscience, cat. 1254), and 50 ng/mL human EGF recombinant protein (Thermo Fisher Scientific, cat. PHG0311). The 485176-168-R4-J1-PDC line was cultured in Panc media, which includes all 6C/Colon 1B media components plus 100 ng/mL human FGF-10 (Thermo Fisher Scientific, cat. 100-26), 500 nM SB-431542 (Selleckchem, cat. S1067), and gastrin (Tocris, cat. 3006).
[…]

[1] = second compound 0.0316 µM, first compound 0.0316 µM
[2] = second compound 0.0316 µM, first compound 0.1 µM
[3] = second compound 0.0316 µM, first compound 0.316 µM
[4] = second compound 0.0316 µM, first compound 1 µM
[5] = second compound 0.0316 µM, first compound 3.16 µM
[6] = second compound 0.0316 µM, first compound 10 µM
[7] = second compound 0.1 µM, first compound 0.0316 µM
[8] = second compound 0.1 µM, first compound 0.1 µM
[9] = second compound 0.1 µM, first compound 0.316 µM
[10] = second compound 0.1 µM, first compound 1 µM
[11] = second compound 0.1 µM, first compound 3.16 µM
[12] = second compound 0.1 µM, first compound 10 µM
[13] = second compound 0.316 µM, first compound 0.0316 µM
[14] = second compound 0.316 µM, first compound 0.1 µM
[15] = second compound 0.316 µM, first compound 0.316 µM
[16] = second compound 0.316 µM, first compound 1 µM
[17] = second compound 0.316 µM, first compound 3.16 µM
[18] = second compound 0.316 µM, first compound 10 µM
[19] = second compound 1 µM, first compound 0.0316 µM
[20] = second compound 1 µM, first compound 0.1 µM
[21] = second compound 1 µM, first compound 0.316 µM
[22] = second compound 1 µM, first compound 1 µM
[23] = second compound 1 µM, first compound 3.16 µM
[24] = second compound 1 µM, first compound 10 µM
[25] = second compound 3.16 µM, first compound 0.0316 µM
[26] = second compound 3.16 µM, first compound 0.1 µM
[27] = second compound 3.16 µM, first compound 0.316 µM
[28] = second compound 3.16 µM, first compound 1 µM
[29] = second compound 3.16 µM, first compound 3.16 µM
[30] = second compound 3.16 µM, first compound 10 µM
[31] = second compound 10 µM, first compound 0.0316 µM
[32] = second compound 10 µM, first compound 0.1 µM
[33] = second compound 10 µM, first compound 0.316 µM
[34] = second compound 10 µM, first compound 1 µM
[35] = second compound 10 µM, first compound 3.16 µM
[36] = second compound 10 µM, first compound 10 µM
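Further: spheroids exposed to compounds for 7 days before readout.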
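Wherever viability, T/C is given: percent of vehicle DMSO control viability with 100% = untreated-like growth.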

## C#Cc1c(F)ccc2cc(O)cc(-c3ncc4c(N5CC6CCC(C5)N6)nc(OCC56CCCN5CC(F)C6)nc4c3F)c12 (centres undefined) + Cc1[nH]c2ccc(F)cc2c1-c1nc2c3cccnc3c3ncccc3c2[nH]1
Second compound 0.0316 µM
  IC50: 1890 nM
Second compound 0.1 µM
  IC50: 1280 nM
Second compound 0.316 µM
  IC50: 1370 nM
Second compound 1 µM
  IC50: 825 nM
Second compound 3.16 µM
  IC50: 35.9 nM
Second compound 10 µM
  IC50: < 31.6 nM
[1]
  viability, T/C: 108%
[2]
  viability, T/C: 95.5%
[3]
  viability, T/C: 82.2%
[4]
  viability, T/C: 83.2%
[5]
  viability, T/C: 20.6%
[6]
  viability, T/C: 26%
[7]
  viability, T/C: 104%
[8]
  viability, T/C: 114%
[9]
  viability, T/C: 98.3%
[10]
  viability, T/C: 59.6%
[11]
  viability, T/C: 13.2%
[12]
  viability, T/C: 22.9%
[13]
  viability, T/C: 96.9%
[14]
  viability, T/C: 102%
[15]
  viability, T/C: 90.4%
[16]
  viability, T/C: 64.4%
[17]
  viability, T/C: 9.13%
[18]
  viability, T/C: 13.3%
[19]
  viability, T/C: 105%
[20]
  viability, T/C: 110%
[21]
  viability, T/C: 102%
[22]
  viability, T/C: 39.5%
[23]
  viability, T/C: 6.79%
[24]
  viability, T/C: 6.81%
[25]
  viability, T/C: 52.7%
[26]
  viability, T/C: 28.4%
[27]
  viability, T/C: 15.7%
[28]
  viability, T/C: 3.57%
[29]
  viability, T/C: 1.91%
[30]
  viability, T/C: 1.84%
[31]
  viability, T/C: 34.4%
[32]
  viability, T/C: 15.4%
[33]
  viability, T/C: 14.7%
[34]
  viability, T/C: 2.45%
[35]
  viability, T/C: 1.52%
[36]
  viability, T/C: 1.43%

## C#Cc1c(F)ccc2cc(O)cc(-c3ncc4c(N5CC6CCC(C5)N6)nc(OCC56CCCN5CC(F)C6)nc4c3F)c12 (centres undefined) + CN(C)c1ccc(Nc2c3ccc(NC(=O)CCN4CCCC4)cc3nc3cc(NC(=O)CCN4CCCC4)ccc23)cc1
Second compound 0.0316 µM
  IC50: > 10000 nM
Second compound 0.1 µM
  IC50: > 10000 nM
Second compound 0.316 µM
  IC50: > 10000 nM
Second compound 1 µM
  IC50: > 10000 nM
Second compound 3.16 µM
  IC50: > 10000 nM
Second compound 10 µM
  IC50: > 10000 nM
[1]
  viability, T/C: 98%
[2]
  viability, T/C: 108%
[3]
  viability, T/C: 89.1%
[4]
  viability, T/C: 98.2%
[5]
  viability, T/C: 84.2%
[6]
  viability, T/C: 82.4%
[7]
  viability, T/C: 103%
[8]
  viability, T/C: 97.1%
[9]
  viability, T/C: 79.2%
[10]
  viability, T/C: 74.5%
[11]
  viability, T/C: 88.7%
[12]
  viability, T/C: 67.6%
[13]
  viability, T/C: 93.7%
[14]
  viability, T/C: 87.7%
[15]
  viability, T/C: 87.4%
[16]
  viability, T/C: 79.9%
[17]
  viability, T/C: 73.1%
[18]
  viability, T/C: 74%
[19]
  viability, T/C: 87.5%
[20]
  viability, T/C: 78.1%
[21]
  viability, T/C: 70.7%
[22]
  viability, T/C: 89.9%
[23]
  viability, T/C: 91.2%
[24]
  viability, T/C: 78.4%
[25]
  viability, T/C: 78.9%
[26]
  viability, T/C: 75.2%
[27]
  viability, T/C: 86.6%
[28]
  viability, T/C: 77.3%
[29]
  viability, T/C: 91.7%
[30]
  viability, T/C: 88.7%
[31]
  viability, T/C: 83.1%
[32]
  viability, T/C: 81.8%
[33]
  viability, T/C: 91.8%
[34]
  viability, T/C: 73.5%
[35]
  viability, T/C: 90.8%
[36]
  viability, T/C: 87.6%
